According to US8981141B1, “I-and II-type crystals of L-A-glyceryl phosphoryl choline, and method for preparing same” (Hanseochem Co., Ltd., priority 2011, dated 2015):
Entries after “also recorded” stand apart in the source; their conditions may differ.

Assay: Hygroscopicity test (water content change with time under 30% humidity)
Format: physicochemical
Conditions: for hygroscopicity (result in words): humidity condition of 30% for 10 hours; for water content after being left under humidity: humidity condition of 30%, after about 10 hours; for initial water content: raw material before exposure to humidity condition of 30%
Description: In the figure, X axis indicates the elapse time and Y axis the water content.
In case of the polymorphic crystal, however, the initial water content was 2.9% but increased to 4.2% after 10 hours due to absorption moisture from air.

## C[N+](C)(C)CCOP(=O)(O)OC[C@H](O)CO [Type I crystal, L-alpha-glyceryl phosphoryl choline]
  hygroscopicity (result in words): very low hygroscopicity
  water content after being left under humidity: 0.2%
  initial water content: 0.1%

## C[N+](C)(C)CCOP(=O)(O)OC[C@H](O)CO [Type II crystal, L-alpha-glyceryl phosphoryl choline]
  hygroscopicity (result in words): very low hygroscopicity
  water content after being left under humidity: 6.5%
  initial water content: 6.5%

## C[N+](C)(C)CCOP(=O)(O)OC[C@H](O)CO [polymorphic crystal, L-alpha-glyceryl phosphoryl choline, reference compound]
  hygroscopicity (result in words): relatively very hygroscopic; also recorded: high hygroscopicity
  water content after being left under humidity: 4.2%
  initial water content: 2.9%
